Patent US10202360B2 (CELGENE QUANTICEL RESEARCH, INC., priority 2016, dated 2019)

Biological target: CREBBP (Homo sapiens (Human), UniProt Q92793)
Experiment: In vitro enzyme inhibition assay - CREBBP inhibition (AlphaScreen, biotinylated H4-tetraacetyl peptide)
Format: binding
Conditions: Table 28; AlphaScreen, H4-tetraacetyl peptide
How it was run: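 His-tagged CREBBP expressed in E. coli (50 nM final) incubated with biotinylated H4K5/8/12/16(Ac) peptide (20 nM final) in HEPES pH 7.3 buffer, 0.4% DMSO, 20 min at room temperature.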

Chain of CREBBP (Q92793 1081-1197): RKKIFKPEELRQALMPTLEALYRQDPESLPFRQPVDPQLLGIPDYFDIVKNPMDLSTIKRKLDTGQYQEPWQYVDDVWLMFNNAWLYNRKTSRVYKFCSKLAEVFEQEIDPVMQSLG

An IC50 of under 500 nM was found for `CCc1cccc(F)c1Oc1nc(NS(=O)(=O)[C@H](C)CC)cc(-c2ccc(=O)n(C)c2)n1` [Example 214, (2R)-Butane-2-sulfonic acid [2-(2-ethyl-6-fluoro-phenoxy)-6-(1-methyl-6-oxo-1,6-dihydro-pyridin-3-yl)-pyrimidin-4-yl]-amide] in this work.
An IC50 of under 500 nM was found for `CCS(=O)(=O)Nc1cc(-c2cc(C)c(=O)n(C)c2)nc(OC2CCCC2)n1` [Example 131, Ethanesulfonic acid [2-cyclopentyloxy-6-(1,5-dimethyl-6-oxo-1,6-dihydro-pyridin-3-yl)-pyrimidin-4-yl]-amide] in this work.
An IC50 of under 500 nM was found for `CCC(CC)S(=O)(=O)Nc1cc(-c2ccc(=O)n(C)c2)nc(Oc2c(C)cccc2Cl)n1` [Example 259, Pentane-3-sulfonic acid [2-(2-chloro-6-methyl-phenoxy)-6-(1-methyl-6-oxo-1,6-dihydro-pyridin-3-yl)-pyrimidin-4-yl]-amide] in this work.
An IC50 of under 500 nM was found for `Cc1cccc(Cl)c1Oc1nc(NS(=O)(=O)C(C)C)cc(-c2c[nH]c(=O)c(C)c2)n1` [Example 158, Propane-2-sulfonic acid [2-(2-chloro-6-methyl-phenoxy)-6-(5-methyl-6-oxo-1,6-dihydro-pyridin-3-yl)-pyrimidin-4-yl]-amide] in this work.
An IC50 of under 500 nM was found for `CCCS(=O)(=O)Nc1nc(Oc2c(C)cccc2F)nc(-c2cc(C)c(=O)n(C)c2)n1` [Example 173, Propane-1-sulfonic acid [4-(1,5-dimethyl-6-oxo-1,6-dihydro-pyridin-3-yl)-6-(2-fluoro-6-methyl-phenoxy)-[1,3,5]triazin-2-yl]-amide] in this work.
An IC50 of under 500 nM was found for `CCC(F)(F)S(=O)(=O)Nc1cc(-c2cc(C)c(=O)n(C)c2)nc(Oc2c(C)cccc2F)n1` [Example 167, 1,1-Difluoro-propane-1-sulfonic acid [6-(1,5-dimethyl-6-oxo-1,6-dihydro-pyridin-3-yl)-2-(2-fluoro-6-methyl-phenoxy)-pyrimidin-4-yl]-amide] in this work.
An IC50 of under 500 nM was found for `CCCCS(=O)(=O)Nc1cc(-c2cc(C)c(=O)n(C)c2)nc(Oc2c(C)cc(Cl)cc2Cl)n1` [Example 28, Butane-1-sulfonic acid [2-(2,4-dichloro-6-methyl-phenoxy)-6-(1,5-dimethyl-6-oxo-1,6-dihydro-pyridin-3-yl)-pyrimidin-4-yl]-amide] in this work.
An IC50 of under 500 nM was found for `Cc1cccc(C)c1Oc1nc(NS(=O)(=O)C(C)C)nc(-c2cc(C)c(=O)n(C)c2)n1` [Example 155, Propane-2-sulfonic acid [4-(1,5-dimethyl-6-oxo-1,6-dihydro-pyridin-3-yl)-6-(2,6-dimethyl-phenoxy)-[1,3,5]triazin-2-yl]-amide] in this work.
An IC50 of under 500 nM was found for `Cc1cccc(C#N)c1Oc1nc(NCc2cccnc2)cc(-c2ccc(=O)n(C)c2)n1` [Example 323, 3-Methyl-2-{4-(1-methyl-6-oxo-1,6-dihydro-pyridin-3-yl)-6-[(pyridin-3-ylmethyl)-amino]-pyrimidin-2-yloxy}-benzonitrile] in this work.
An IC50 of under 500 nM was found for `CCC[C@@H](C)S(=O)(=O)Nc1cc(-c2ccc(=O)n(C)c2)nc(Oc2c(C)cccc2F)n1` [Example 219, (2R)-Pentane-2-sulfonic acid [2-(2-fluoro-6-methyl-phenoxy)-6-(1-methyl-6-oxo-1,6-dihydro-pyridin-3-yl)-pyrimidin-4-yl]-amide] in this work.
An IC50 of under 500 nM was found for `CCC[C@H](C)S(=O)(=O)Nc1cc(-c2ccc(=O)n(C)c2)nc(Oc2c(Cl)ccc(C)c2F)n1` [Example 227, (2S)-Pentane-2-sulfonic acid [2-(6-chloro-2-fluoro-3-methyl-phenoxy)-6-(1-methyl-6-oxo-1,6-dihydro-pyridin-3-yl)-pyrimidin-4-yl]-amide] in this work.
An IC50 of under 500 nM was found for `CCC[C@H](C)S(=O)(=O)Nc1cc(-c2ccc(=O)n(C)c2)nc(Oc2c(F)cccc2Cl)n1` [Example 218, (2S)-Pentane-2-sulfonic acid [2-(2-chloro-6-fluoro-phenoxy)-6-(1-methyl-6-oxo-1,6-dihydro-pyridin-3-yl)-pyrimidin-4-yl]-amide] in this work.
An IC50 of under 500 nM was found for `Cc1cccc(F)c1Oc1nc(NCCC(C)C)cc(-c2ccc(=O)n(C)c2)n1` [Example 309, 5-[2-(2-Fluoro-6-methyl-phenoxy)-6-(3-methyl-butylamino)-pyrimidin-4-yl]-1-methyl-1H-pyridin-2-one] in this work.
An IC50 of under 500 nM was found for `Cc1cccc(C#N)c1Oc1nc(NS(=O)(=O)C(C)C)cc(-c2ccc(=O)n(C)c2)n1` [Example 110, Propane-2-sulfonic acid [2-(2-cyano-6-methyl-phenoxy)-6-(1-methyl-6-oxo-1,6-dihydro-pyridin-3-yl)-pyrimidin-4-yl]-amide] in this work.
An IC50 of under 500 nM was found for `CCCCS(=O)(=O)Nc1nc(Oc2c(F)cccc2Cl)nc(-c2cc(C)c(=O)n(C)c2)n1` [Example 190, Butane-1-sulfonic acid [4-(2-chloro-6-fluoro-phenoxy)-6-(1,5-dimethyl-6-oxo-1,6-dihydro-pyridin-3-yl)-[1,3,5]triazin-2-yl]-amide] in this work.
An IC50 of 500 to 5000 nM was found for `CCS(=O)(=O)Nc1nc(OC(C)C)nc(-c2ccc(=O)n(C)c2)n1` [Example 200, Ethanesulfonic acid [4-isopropoxy-6-(1-methyl-6-oxo-1,6-dihydro-pyridin-3-yl)-[1,3,5]triazin-2-yl]-amide] in this work.
An IC50 of under 500 nM was found for `CCCCS(=O)(=O)Nc1nc(Oc2c(C)cccc2Cl)nc(-c2cc(C)c(=O)n(C)c2)n1` [Example 188, Butane-1-sulfonic acid [4-(2-chloro-6-methyl-phenoxy)-6-(1,5-dimethyl-6-oxo-1,6-dihydro-pyridin-3-yl)-[1,3,5]triazin-2-yl]-amide] in this work.
An IC50 of under 500 nM was found for `Cc1cccc(F)c1Oc1nc(NC2CCCC2)cc(-c2ccc(=O)n(C)c2)n1` [Example 285, 5-(6-(cyclopentylamino)-2-(2-fluoro-6-methylphenoxy)pyrimidin-4-yl)-1-methylpyridin-2(1H)-one] in this work.
An IC50 of 500 to 5000 nM was found for `CCCCS(=O)(=O)Nc1cc(-c2cn(C)c(=O)c3ccccc23)nc(Oc2c(C)cccc2C)n1` [Example 97, Butane-1-sulfonic acid [2-(2,6-dimethyl-phenoxy)-6-(2-methyl-1-oxo-1,2-dihydro-isoquinolin-4-yl)-pyrimidin-4-yl]-amide] in this work.
An IC50 of under 500 nM was found for `CCCS(=O)(=O)Nc1cc(-c2ccc(=O)n(C)c2)nc(Oc2c(F)cccc2CC)n1` [Example 339, N-(2-(2-ethyl-6-fluorophenoxy)-6-(1-methyl-6-oxo-1,6-dihydropyridin-3-yl)pyrimidin-4-yl)propane-1-sulfonamide] in this work.
An IC50 of under 500 nM was found for `CCC(CC)S(=O)(=O)Nc1cc(-c2ccc(=O)n(C)c2)nc(Oc2c(F)cccc2Cl)n1` [Example 254, Pentane-3-sulfonic acid [2-(2-chloro-6-fluoro-phenoxy)-6-(1-methyl-6-oxo-1,6-dihydro-pyridin-3-yl)-pyrimidin-4-yl]-amide] in this work.
An IC50 of under 500 nM was found for `CCCCS(=O)(=O)Nc1cc(Oc2c(C)cccc2C)nc(-c2cc(C)c(=O)n(C)c2)n1` [Example 56, Butane-1-sulfonic acid [2-(1,5-dimethyl-6-oxo-1,6-dihydro-pyridin-3-yl)-6-(2,6-dimethyl-phenoxy)-pyrimidin-4-yl]-amide] in this work.
An IC50 of 500 to 5000 nM was found for `CCCS(=O)(=O)Nc1nc(OC(C)C)nc(-c2ccc(=O)n(C)c2)n1` [Example 201, Propane-1-sulfonic acid [4-isopropoxy-6-(1-methyl-6-oxo-1,6-dihydro-pyridin-3-yl)-[1,3,5]triazin-2-yl]-amide] in this work.
